The values below come from US10676479B2, “Imidazolepyridine compounds and uses thereof” (Novartis AG, priority 2016, dated 2020).

One test has as its target EED (1-441)-His protein (Homo sapiens (Human), UniProt O75530). Put plainly: EED-H3K27Me3 peptide competition binding assay by AlphaScreen. The following applies: EED Alphascreen binding Qualified assay. The method, then: Then 4 μL of detection beads mix was added to the plate and incubate in the dark at the rt for 1 h. The final concentration of donor and acceptor beads was 10 μg/mL for each. […] The data were then fit to a dose response equation using the program Helios (Novartis) to get the IC50 values. […] Sebaugh, J. […] Each compound was counter screened to determine if it interfered with the AlphaScreen beads. […] The plates were then incubated for 1 h at rt in dark before being read on EnVison.

Test [1] has as its target wild type PRC2 (wtPRC2) complex (Homo sapiens (Human), UniProt O75530). Put plainly: EED LC-MS assay. Format: biochemical. The following applies: EED LC-MS Qualified assay; read-out: (b) IC50. The method, then:
EED LC-MS Assay Representative compounds of the present invention were serially and separately diluted 3-fold in DMSO to obtain a total of eight or twelve concentrations. […] A 6 μL solution of 3 μM of the peptide substrate H3K27Me0 (histone H3[21-44]-biotin) in reaction buffer was added to initiate each reaction. […] The data were then fit to a dose response equation using the program Helios to get the IC50 values of the test compound.

Test [2] relates to H3K27 methylation in G401 cell. The test can be described thus: ELISA (H3K27 methylation) assay. It counts as cell-based. The following applies: Homo sapiens, G-401, ELISA Qualified assay, 48 h, read-out: (c) IC50. The method, then: ELISA (H3K27 Methylation) Assay
Representative compounds of the present invention were serially and separately diluted 3-fold in DMSO to obtain a total of eight or twelve concentrations. Then the compounds were added to G401 cell cultured in 384-well plate at 1:500 dilution to obtain the highest concentration of 20 μM. The cells were further cultured for 48 h before ELISA procedure.
ELISA protocol: Cell lysates were transferred to the wells of a 384-well plate and the final volume was adjusted to 50 μL per well with PBS. The plate was sealed, centrifuged at 2,000 rpm for 2 min and incubated at 4° C. for about 16 h. The plate was washed with TBST buffer (1×TBS (10×TBS: 24.2 g Tris (Sigma, T6066), 80 g NaCl (Sigma, S3014) to 1 L of water and adjust pH to 7.6 with HCl) with 0.1% Tween-20). Blocking buffer (TBST, 5% BSA; 50 μL per well) was added and the plate was incubated for 1 h at rt. The blocking buffer was removed and primary antibody was added (30 μL per well). […] The primary antibody was incubated in the plate at rt for 1 h. The wells were washed with TBST and incubated with secondary antibody for 1 h at rt. […] After 1 h of incubation at rt, the wells were washed with TBST. […] The signal was read using a PerkinElmer Envision Reader. The H3K27 methylation readouts were normalized using H3 signal and then percentage inhibition was calculated against the samples treated with DMSO. The data were then fit to a dose response curve using the program Helios to get the IC50 values of the test compound.

Sequence of EED (1-441)-His protein (O75530 whole entry): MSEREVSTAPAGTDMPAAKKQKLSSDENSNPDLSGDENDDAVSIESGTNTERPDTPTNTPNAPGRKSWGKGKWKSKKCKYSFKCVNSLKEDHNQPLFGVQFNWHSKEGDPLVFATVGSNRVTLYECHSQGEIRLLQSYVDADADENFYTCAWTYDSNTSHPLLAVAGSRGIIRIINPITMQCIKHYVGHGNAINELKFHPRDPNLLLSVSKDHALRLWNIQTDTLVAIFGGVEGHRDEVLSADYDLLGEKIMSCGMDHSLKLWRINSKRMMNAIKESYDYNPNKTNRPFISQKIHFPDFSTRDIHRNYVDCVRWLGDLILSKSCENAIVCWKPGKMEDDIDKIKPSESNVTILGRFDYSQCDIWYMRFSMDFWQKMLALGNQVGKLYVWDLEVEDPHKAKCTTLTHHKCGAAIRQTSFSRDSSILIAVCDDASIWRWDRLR
Sequence of wild type PRC2 (wtPRC2) complex (O75530 whole entry): as above
Sequence of wild type PRC2 (wtPRC2) complex (Q15910 whole entry partner): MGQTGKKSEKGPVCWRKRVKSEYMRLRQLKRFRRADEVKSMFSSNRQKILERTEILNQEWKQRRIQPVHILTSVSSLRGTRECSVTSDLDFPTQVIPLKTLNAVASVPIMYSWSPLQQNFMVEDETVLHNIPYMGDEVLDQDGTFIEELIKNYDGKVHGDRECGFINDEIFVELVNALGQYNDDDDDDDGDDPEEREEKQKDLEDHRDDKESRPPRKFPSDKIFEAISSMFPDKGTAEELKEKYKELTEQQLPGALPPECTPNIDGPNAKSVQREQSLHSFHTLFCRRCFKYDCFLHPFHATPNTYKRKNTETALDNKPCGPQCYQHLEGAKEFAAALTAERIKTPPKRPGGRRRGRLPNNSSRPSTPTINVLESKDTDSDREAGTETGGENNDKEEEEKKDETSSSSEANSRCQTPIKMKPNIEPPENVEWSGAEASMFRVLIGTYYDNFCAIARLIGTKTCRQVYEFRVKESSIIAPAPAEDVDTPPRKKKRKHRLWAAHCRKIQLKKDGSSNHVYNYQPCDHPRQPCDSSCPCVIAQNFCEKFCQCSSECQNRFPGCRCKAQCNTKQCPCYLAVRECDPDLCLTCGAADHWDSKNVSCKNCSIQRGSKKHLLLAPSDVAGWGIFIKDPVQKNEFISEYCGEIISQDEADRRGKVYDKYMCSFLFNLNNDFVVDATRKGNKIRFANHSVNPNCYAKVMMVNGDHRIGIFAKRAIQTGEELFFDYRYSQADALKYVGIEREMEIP
Sequence of wild type PRC2 (wtPRC2) complex (Q15022 whole entry partner): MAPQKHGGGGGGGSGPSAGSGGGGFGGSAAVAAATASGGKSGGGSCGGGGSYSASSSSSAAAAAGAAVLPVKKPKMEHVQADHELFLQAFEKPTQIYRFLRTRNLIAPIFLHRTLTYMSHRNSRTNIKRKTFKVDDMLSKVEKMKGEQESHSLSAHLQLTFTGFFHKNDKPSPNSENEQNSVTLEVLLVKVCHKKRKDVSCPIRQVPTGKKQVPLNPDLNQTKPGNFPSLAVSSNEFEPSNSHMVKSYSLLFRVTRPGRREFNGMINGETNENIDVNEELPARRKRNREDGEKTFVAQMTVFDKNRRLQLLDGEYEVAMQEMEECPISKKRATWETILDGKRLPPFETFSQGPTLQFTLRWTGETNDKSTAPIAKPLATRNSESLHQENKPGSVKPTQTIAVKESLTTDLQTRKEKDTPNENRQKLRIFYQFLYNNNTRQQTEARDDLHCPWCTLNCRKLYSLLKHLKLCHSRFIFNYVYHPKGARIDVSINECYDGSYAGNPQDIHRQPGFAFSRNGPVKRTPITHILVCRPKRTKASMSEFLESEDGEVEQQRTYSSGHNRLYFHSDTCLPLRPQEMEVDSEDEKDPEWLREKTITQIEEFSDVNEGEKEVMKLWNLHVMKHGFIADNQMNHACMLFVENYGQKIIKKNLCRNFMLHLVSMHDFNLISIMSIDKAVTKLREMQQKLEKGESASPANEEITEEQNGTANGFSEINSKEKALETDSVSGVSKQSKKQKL

For `C#Cc1ncn2c(NCc3c(F)ccc4c3CCO4)ncc(-c3cccnc3C)c12` [Example 12, 1-Ethynyl-N-((5-fluoro-2,3-dihydrobenzofuran-4-yl)methyl)-8-(2-methylpyridin-3-yl)imidazo[1,5-c]pyrimidin-5-amine], the IC50 on EED (1-441)-His protein is 5.4 nM; in test [1] it was 6.8 nM; in test [2] it was 48.9 nM.
Turning to `CCOC(=O)c1ncn2c(NCc3c(F)ccc4c3CCO4)ncc(Br)c12` [Example 91, ethyl 8-bromo-5-(((5-fluoro-2,3-dihydrobenzofuran-4-yl)methyl)amino)imidazo[1,5-c]pyrimidine-1-carboxylate], the results for the IC50 (on EED (1-441)-His protein; in test [1]; in test [2]) were 8.5 nM, 8 nM and 32 nM, respectively.
On the same counts, the results for `Fc1ccc2c(c1CNc1ncc(-c3ccc(CN4CCCC4)cc3)c3cncn13)CCO2` [Example 39, N-((5-fluoro-2,3-dihydrobenzofuran-4-yl)methyl)-8-(4-(pyrrolidin-1-ylmethyl)phenyl)imidazo[1,5-c]pyrimidin-5-amine] are 10.5 nM, 10.1 nM and 31 nM.
The corresponding values for `Cc1ncc(-c2cnc(NCc3c(F)ccc4c3CCO4)n3cnc(CO)c23)c(C)n1` [Example 8, (8-(2,4-Dimethylpyrimidin-5-yl)-5-(((5-fluoro-2,3-dihydrobenzofuran-4-yl)methyl)amino)imidazo[1,5-c]pyrimidin-1-yl)methanol] are 11.6 nM, 18.6 nM and 30.4 nM.
With `Cc1ncc(-c2cnc(NCc3c(F)ccc4c3CCO4)n3cnc(C#N)c23)c(C)n1` [Example 3, 8-(2,4-dimethylpyrimidin-5-yl)-5-(((5-fluoro-2,3-dihydrobenzofuran-4-yl)methyl)amino)imidazo[1,5-c]pyrimidine-1-carbonitrile], the figures for the concentration for half-maximal inhibition (IC50) (on EED (1-441)-His protein; in test [1]; in test [2]) were 6.8 nM, 13.7 nM and 13.2 nM, respectively.
On the same counts, the results for `Cc1nc(C(F)(F)CN2CCCC2)ccc1-c1cnc(NCc2c(F)ccc3c2CCO3)n2cncc12` [Example 59, 8-(6-(1,1-difluoro-2-(pyrrolidin-1-yl)ethyl)-2-methylpyridin-3-yl)-N-((5-fluoro-2,3-dihydrobenzofuran-4-yl)methyl)imidazo[1,5-c]pyrimidin-5-amine] are 13 nM, 25.5 nM and 98.7 nM.
In the case of `Cc1ccc(-c2ncn3c(NCc4c(F)ccc5c4CCO5)ncc(-c4cccnc4C)c23)cn1` [Example 115, N-((5-fluoro-2,3-dihydrobenzofuran-4-yl)methyl)-8-(2-methylpyridin-3-yl)-1-(6-methylpyridin-3-yl)imidazo[1,5-c]pyrimidin-5-amine], the IC50 at EED (1-441)-His protein was 6.2 nM; in test [1] it was 17.6 nM; in test [2], 4 nM.
The corresponding values for `CC(C)S(=O)(=O)c1ccc(-c2cnc(NCc3c(F)ccc4c3CCO4)n3cncc23)cc1` [Example 30, N-((5-fluoro-2,3-dihydrobenzofuran-4-yl)methyl)-8-(4-(isopropylsulfonyl)phenyl)imidazo[1,5-c]pyrimidin-5-amine] are 7.7 nM, 11.1 nM and 19.5 nM.
As to `CS(=O)(=O)c1ccc(-c2cnc(NCc3c(F)ccc4c3CCO4)n3cnc(C#N)c23)cn1` [Example 79, 5-(((5-fluoro-2,3-dihydrobenzofuran-4-yl)methyl)amino)-8-(6-(methylsulfonyl)pyridin-3-yl)imidazo[1,5-c]pyrimidine-1-carbonitrile], the IC50 was 5.3 nM at EED (1-441)-His protein, 16.7 nM in test [1] and 6.6 nM in test [2].
On the same counts, the results for `Cc1nn(CCO)c(C)c1-c1cnc(NCc2c(F)ccc3c2CCO3)n2cncc12` [Example 49, 2-(4-(5-(((5-fluoro-2,3-dihydrobenzofuran-4-yl)methyl)amino)imidazo[1,5-c]pyrimidin-8-yl)-3,5-dimethyl-1H-pyrazol-1-yl)ethan-1-ol] are 7.9 nM, 13.5 nM and 20.4 nM.
As for `Cc1ncn2c(NCc3c(F)ccc4c3CCO4)ncc(-c3ccc(S(C)(=O)=O)cc3)c12` [Example 4, N-((5-fluoro-2,3-dihydrobenzofuran-4-yl)methyl)-1-methyl-8-(4-(methylsulfonyl)phenyl)imidazo[1,5-c]pyrimidin-5-amine], the IC50 at EED (1-441)-His protein came to 15.6 nM; in test [1] it was 29.5 nM; in test [2] it was 32.5 nM.
The corresponding values for `Cc1nc(N2CC(C)NC(C)C2)ncc1-c1cnc(NCc2c(F)ccc3c2CCO3)n2cnc(C#N)c12` (stereo not drawn) [Example 83, 8-(2-(3,5-dimethylpiperazin-1-yl)-4-methylpyrimidin-5-yl)-5-(((5-fluoro-2,3-dihydrobenzofuran-4-yl)methyl)amino)imidazo[1,5-c]pyrimidine-1-carbonitrile] are 2.3 nM, 5.7 nM and 13.1 nM.
On to `Cc1cn(-c2cnc(NCc3c(F)ccc4c3CCO4)n3cnc(C#N)c23)cn1` [Example 6, 5-(((5-Fluoro-2,3-dihydrobenzofuran-4-yl)methyl)amino)-8-(4-methyl-1H-imidazol-1-yl)imidazo[1,5-c]pyrimidine-1-carbonitrile], for which the values for the IC50 (on EED (1-441)-His protein; in test [1]; in test [2]) were 4.2 nM, 12.5 nM and 3.1 nM, respectively.
The corresponding values for `N#Cc1ncn2c(NCc3c(F)ccc4c3CCO4)ncc(-c3ccc(N4CCOCC4)nc3)c12` [Example 82, 5-(((5-fluoro-2,3-dihydrobenzofuran-4-yl)methyl)amino)-8-(6-morpholinopyridin-3-yl)imidazo[1,5-c]pyrimidine-1-carbonitrile] are 8.3 nM, 18.1 nM and 6.8 nM.
`CCOC(=O)c1ncn2c(NCc3c(F)ccc4c3CCO4)ncc(-c3cnc(C)nc3C)c12` [Example 94, ethyl 8-(2,4-dimethylpyrimidin-5-yl)-5-(((5-fluoro-2,3-dihydrobenzofuran-4-yl)methyl)amino)imidazo[1,5-c]pyrimidine-1-carboxylate]: the IC50 is 4.3 nM at EED (1-441)-His protein, 5.7 nM in test [1] and 3.6 nM in test [2].
The corresponding values for `Cc1nc(OC(C)C)ncc1-c1cnc(NCc2c(F)ccc3c2CCO3)n2cncc12` [Example 61, N-((5-fluoro-2,3-dihydrobenzofuran-4-yl)methyl)-8-(2-isopropoxy-4-methylpyrimidin-5-yl)imidazo[1,5-c]pyrimidin-5-amine] are 8.3 nM, 19.1 nM and 22.5 nM.
On the same counts, the results for `CS(=O)(=O)Nc1ccc(-c2cnc(NCc3c(F)ccc4c3CCO4)n3cncc23)cc1` [Example 29, N-(4-(5-(((5-fluoro-2,3-dihydrobenzofuran-4-yl)methyl)amino)imidazo[1,5-c]pyrimidin-8-yl)phenyl)methanesulfonamide] are 37.5 nM, 32.9 nM and 73.4 nM.
On the same counts, the results for `Cc1ccc(-c2ncn3c(NCc4c(F)ccc5c4CCO5)ncc(-c4cnc(C)nc4C)c23)c(C)n1` [Example 113, 1-(2,6-dimethylpyridin-3-yl)-8-(2,4-dimethylpyrimidin-5-yl)-N-((5-fluoro-2,3-dihydrobenzofuran-4-yl)methyl)imidazo[1,5-c]pyrimidin-5-amine] are 15.2 nM, 38.9 nM and 53.1 nM.
With `Cc1ccc(-c2cnc(NCc3c(F)ccc4c3CCO4)n3cncc23)c(C)n1` [Example 43, 8-(2,6-dimethylpyridin-3-yl)-N-((5-fluoro-2,3-dihydrobenzofuran-4-yl)methyl)imidazo[1,5-c]pyrimidin-5-amine], the IC50 on EED (1-441)-His protein is 10.3 nM; in test [1] it was 12.6 nM; in test [2], 50.9 nM.
On to `CN1CCN(c2ccc(-c3cnc(NCc4c(F)ccc5c4CCO5)n4cncc34)cn2)CC1` [Example 40, N-((5-fluoro-2,3-dihydrobenzofuran-4-yl)methyl)-8-(6-(4-methylpiperazin-1-yl)pyridin-3-yl)imidazo[1,5-c]pyrimidin-5-amine], for which the IC50 came out at 17.7 nM on EED (1-441)-His protein, 28.2 nM in test [1] and 66 nM in test [2].
